# Reference: article PMC10340464, “Identification of a Novel SSTR3 Full Agonist for the Treatment of Nonfunctioning Pituitary Adenomas” (Cancers, 2023)
# Legend:
# κ (KOP) = assay: Single-dose binding assay on κ opioid receptor; settings: 10^−5 M
# HA-SSTR2 = assay: SSTR2 internalization in HEK293 cells, confocal microscopy; type: cell-based, human; settings: 1 µM agonist, 30 min 37 °C
# Description: HEK293 cells obtained from DSMZ (Braunschweig, Germany) were transfected with plasmid encoding […] HA-tagged SSTR2, SSTR3 or SSTR5 receptors.
# HEK293 cells stably expressing HA-tagged hSSTR cultures were preincubated with anti-HA antibody for 2 h at 4 °C and then exposed to 1 µM agonist for 30 min at 37 °C before fixing and further labeling with Alexa488-conjugated secondary antibody. After mounting with Roti®-MountFluorCare DAPI, cultures were examined using a Zeiss LSM510 META laser scanning confocal microscope (Zeiss, Jena, Germany) (see Supplementary Materials for details).
# GH produced by primary cultures was tested by ELISA assay using Rat Growth Hormone Biotrak Enzyme immunoassay Mouse/Rat Growth ELISA (DSL-10-72100) or Rat/Mouse Growth Hormone ELISA (Millipore EZRMGH-45K) diluting supernatants 1:20, according to manufacturer’s instructions. […]
# U2OS recombinant cell lines were obtained from Innoprot (Derio, Spain). […] Nuclei were stained using DAPI (2 μg/ml) and the ﬂuorescence was measured using a BD Pathway 855 High-Content Bioimager from Becton Dickinson. The receptor internalization was calculated using AttoVision Software. […]
# Agonist activity of test compounds was calculated relatively to positive control
# [1] = species, matrix, method and reference not given; cited from earlier work
# NOP (ORL1) (h) = assay: Single-dose binding assay on NOP receptor; parameters: species or system human; settings: 10^−5 M
# [2] = test system: NFPAs of MENX (homozygous mutant) rats; assay: In vivo efficacy against endogenous NFPAs in MENX rats; parameters: species or system rat; settings: 12.5 mg/kg s.c. every 14 days, 56 days
# Description: Tumor monitoring in rats was conducted using MRI at day 0 (pretreatment) and every 14 days post-treatment (days 14, 28, 42, 56). MRI was performed on a 7T preclinical scanner (Bruker BioSpin MRI GmbH, Ettlingen, Germany) using previously published procedures suitable to visualize the rat pituitary tumors. In the T2 weighted datasets, regions of interest (ROIs) were manually segmented around the adenomas in every slice where they appeared; tumor volumes were finally calculated from the data (area of particular ROIs and slice thickness) using an implemented algorithm in Osirix/Horos (Pixmeo SARL/Horos Project) as previously described.
# RNA was extracted using RNeasy Mini Kit (Qiagen, Cluj-Napoca, Romania) following the manufacturer’s instructions. Total RNA concentration and purity was assessed using Nanodrop 2000 spectrophotometer (Thermo Scientific, Waltham, MA, USA). Total RNA was retrotranscribed using random hexamer primers and the cDNA First Strand Synthesis kit (Thermo Scientific). Details regarding the quantitative PCR (qPCR) procedure used to determine the absolute expression levels of the different somatostatin receptor genes (Sstr1-5) have been previously reported. Specific sets of primers for these genes have been previously validated and reported. To control for the amount of RNA and for the efficiency of the retrotranscription reaction, mRNA copy numbers of the different transcripts analyzed were adjusted by β-actin (ACTB) expression (used as housekeeping gene).
# Ki67-positive tumor cells per 100,000 µm^2 were counted under the microscope in 3 independent areas for each tumor sample.
# Linear mixed-effects (LME) models were applied for longitudinal analysis of tumor volume growth, with absolute tumor volume at day 0 used for scaling subsequent measurements of each individual, as previously reported. Relative volumes were transformed by natural logarithms for use as model outcomes in order to meet the normal distributional assumptions. Linear and quadratic growth predictors and interactions were considered for significance testing, performed by the F-test, with results presented as the mean ± standard error of the mean (SEM). Statistical significance between two series of data was determined by one-way ANOVA. A p value < 0.05 was considered statistically significant.
# δ (DOP) (h) = assay: Single-dose binding assay on δ opioid receptor; parameters: species or system human; settings: 10^−5 M
structure (smiles),measurement,setting,value
"COc1cc2cccc(OC)c2cc1C[C@H]1NC(=O)[C@H](Cc2ccc(O)cc2)NC(=O)[C@@H]2C[C@@H](OC(=O)NCCN)CN2C(=O)[C@H](Cc2ccccc2)NC(=O)[C@H](Cc2ccc(OCc3ccccc3)cc2)NC(=O)[C@H](CCCCN)NC1=O [ITF2984, Cyclo[Tyr(Bn)-Phe-Pro(4-OCONH(CH2)2NH2)-Tyr-3,8-diMeONal-Lys]]",Percentage of inhibition of opioid receptor κ (KOP) (agonist),κ (KOP),97%
same,internalization of SSTR2 in transfected HEK293 cells,HA-SSTR2,partial internalization
same,Half-time life,[1],18 h
same,Percentage of inhibition of opioid receptor NOP (ORL1) (h) (agonist),NOP (ORL1) (h),61%
same,"change in number of Ki67-positive cells versus placebo, female rats",[2]; female MENX rats,−57%
same,"tumor volume during treatment (MRI), female rats","[2]; female MENX rats, MRI every 14 days",only a slight increase in tumor volume
same,"number of Ki67-positive cells per area, average, female rats","[2]; female MENX rats, placebo 312","134 cells per 100,000 mm^2"
same,"change in number of Ki67-positive cells versus placebo, male rats",[2]; male MENX rats,−33.5%
same,"number of Ki67-positive cells per area, average, male rats","[2]; male MENX rats, placebo 375","250 cells per 100,000 mm^2"
same,Percentage of inhibition of opioid receptor δ (DOP) (h) (agonist),δ (DOP) (h),79%
